Laboratory results: ChEMBL document CHEMBL1201862, “PubChem BioAssay data set” (2004)
Where “and” joins values, the source holds several entries; their conditions need not be identical. Identical values can stand only once.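 Tested at 5 concentrations; 48 h exposure; 96-well plates; endpoints linearly interpolated, else capped at highest concentration. Here, GI50 denotes the concentration required for 50% inhibition of growth.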 Calls of active or inactive are those of the source. No stated cut-off is given here; in the data, active = GI50 up to about 1.1 µM and inactive = higher. Starred links: 1 amine or outer side, 2 acyl side, 3 side chain; linkers in the order of their positions; H or OH if unused. Positions of bridges follow the written chain, without caps; N, C: chain ends. Non-standard residues stand in square brackets, D forms with d. Residues, ends and D or L forms follow the SMILES beside them. Chains are numbered I, II in the order given. Actinocin(9to1) = Cc1c2oc3c(C)ccc(C(=O)[*:1])c3nc-2c(C(=O)[*:2])c(N)c1=O; NMeF = CN[CH](Cc1ccccc1)C(=O)O; Sar = CNCC(=O)O

Experiments:
Test in all cases: inhibition of tumour cell growth, NCI panel, 48 h
A498 = test system: A498
ACHN = test system: ACHN
BT-549 = test system: BT-549
CAKI-1 = test system: CAKI-1
DU-145 = test system: DU-145
HCC 2998 = test system: HCC 2998
HOP-62 = test system: HOP-62
HOP-92 = test system: HOP-92
Hs-578T = test system: Hs-578T
KM12 = test system: KM12
M14 = test system: M14
MDA-MB-435 = test system: MDA-MB-435
Malme-3M = test system: Malme-3M
NCI-H226 = test system: NCI-H226
NCI-H23 = test system: NCI-H23
OVCAR-3 = test system: OVCAR-3
OVCAR-4 = test system: OVCAR-4
OVCAR-8 = test system: OVCAR-8
PC-3 = test system: PC-3
RPMI-8226 = test system: RPMI-8226
RXF 393 = test system: RXF 393
SF-268 = test system: SF-268
SF-295 = test system: SF-295
SF-539 = test system: SF-539
SK-MEL-28 = test system: SK-MEL-28
SK-MEL-2 = test system: SK-MEL-2
SK-MEL-5 = test system: SK-MEL-5
SK-OV-3 = test system: SK-OV-3
SNB-75 = test system: SNB-75
SW-620 = test system: SW-620
T47D = test system: T47D
UACC-257 = test system: UACC-257

Measured: GI50

Cc1c2oc3c(C)ccc(C(=O)NC4C(=O)NC(C(C)C)C(=O)N5CCCC5C(=O)N(C)CC(=O)N(C)C(Cc5ccccc5)C(=O)OC4C)c3nc-2c(C(=O)NC2C(=O)NC(C(C)C)C(=O)N3CCCC3C(=O)N(C)CC(=O)N(C)C(Cc3ccccc3)C(=O)OC2C)c(N)c1=O (configuration not stated) (I: TVP[Sar][NMeF] / II: TVP[Sar][NMeF]; ester I:1-I:C, II:1-II:C; linker I:N-II:N via Actinocin(9to1); configuration not given here)
active: A498 10.8 nM | ACHN 9.89 nM | BT-549 18.9 nM | CAKI-1 < 10 nM and 17.3 nM | DU-145 8.07 nM | HCC 2998 8.87 nM | HOP-62 < 10 nM and 9.31 nM | HOP-92 < 10 nM and 14.9 nM | Hs-578T < 10 nM and 7.24 nM | KM12 5.04 nM | M14 < 10 nM and 19.6 nM | MDA-MB-435 < 10 nM and 6.21 nM | Malme-3M < 10 nM and 6.65 nM | NCI-H226 < 10 nM and 16.5 nM | NCI-H23 < 10 nM and < 11.1 nM | OVCAR-3 < 10 nM and 12.9 nM | OVCAR-4 < 10 nM and 6.64 nM | OVCAR-8 12.7 nM | PC-3 11.2 nM | RPMI-8226 < 10 nM and 9.95 nM | RXF 393 < 10 nM and 12.5 nM | SF-268 < 10 nM and 9.29 nM | SF-295 < 10 nM and 10.8 nM | SF-539 < 10 nM and 5.64 nM | SK-MEL-28 < 10 nM and 7.33 nM | SK-MEL-2 9.57 nM | SK-MEL-5 < 10 nM and 6 nM | SK-OV-3 15.7 nM | SNB-75 < 10 nM and 7.11 nM | SW-620 < 10 nM and 6.17 nM | T47D 5.21 nM | UACC-257 < 10 nM and 12.8 nM
